In patent publication US8470983B2, “L-sugar colon cleansing agent and uses thereof” (Aptalis Pharma Canada Inc., priority 2009, dated 2013):

Legend:
[1] = Dissolution of L-glucose monohydrate versus anhydrous L-glucose in water with consumer-like stirring; type: physicochemical; conditions: for Time of stirring until sample fully dissolved: 53 g L-glucose monohydrate in 240 mL doubly distilled water; for Observation of undissolved solid / clumping / Appearance of final solution: 240 mL water
Procedure: The following describes methods for determining the increased dissolution rate of L-glucose monohydrate comprising compositions.
Each sample comprises approximately an equivalent amount of L-glucose on a weight basis. Carefully, to avoid agitation and mixing, doubly distilled water (240 mL) is added to each beaker. In one example, the solution is stirred immediately after addition of water. In a second example, the solutions are allowed to stand for 5 minutes before agitation. The stiffing was conducted in a manner duplicating the way a consumer is expected to stir a sample prior to use. The following Table summaries these experiments which were conducted in duplicate.

[2] = 90-day dietary study of L-glucose; type: in vivo
Procedure: (§1) In preclinical studies, there was no metabolism of L-glucose in any mammalian species studied. […] The maximum tolerated dose in rats was determined to be 10% dietary level of L-glucose.

[3] = Comparative Example 1: multicenter, double-blind, dose-range-finding study of L-glucose as colon-cleansing agent before colonoscopy; type: in vivo, human; conditions: single doses 12 g, 16 g, 20 g, 24 g
Procedure: A multicenter, double-blind, dose-range-finding study to evaluate the effectiveness and safety of L-glucose as a colon-cleansing agent before colonoscopy was conducted. Doses used in this study were 12 g, 16 g, 20 g, and 24 g. The assessment of the preparations was based on the scale used in Hsu et al., “Meta-analysis and cost comparison of polyethylene glycol lavage versus sodium phosphate for colonoscopy preparation,” Gastrointestinal Endoscopy 48(3):276-282, 1998, wherein small bits of fecal material in the colon were allowed in an “Excellent” score.

[4] = Example 3: open-label, 2-site dose-escalating split-dose study of L-glucose before colonoscopy (GPA and RSS); type: in vivo, human
Text: Applicants have relied upon a combination of a categorical, 4-point scale and a numerical, segmental scoring system to assess bowel cleansing quality (Balaban et al. “Low volume bowel preparation for colonoscopy: randomized, endoscopist-blinded trial of liquid sodium phosphate versus tablet sodium phosphate,” Am J Gastroenterol 98:827-32, 2003). The basic 4-point scale, known as the Global Preparation Assessment (GPA), is essentially the same as the original scale used in the first randomized controlled trial of PHOSPHO-SODA™ as a bowel cleansing agent published in 1990 by Vanner, et al. (“A randomized prospective trial comparing oral sodium phosphate with standard polyethylene glycol-based lavage solution (Golytely) in the preparation of patients for colonoscopy,” Am J Gastroenterol 85:422-7, 1990). The numerical scoring system, known as the Residual Stool Score (RSS), is a continuously variable, averaged segmental scoring instrument that assesses both the amount and consistency of residual stool before suctioning (a measure of the cathartic activity of the bowel cleansing regimen) as well as the percent of the bowel wall seen after washing and cleansing (a measure of the ultimate endpoint for bowel preparation success). The two scales are shown below.
(§2) Global Preparation Assessment
(§3) Excellent=clean colon or small volume of clear liquid
(§4) Good=moderate to large volume of clear to semiclear liquid
(§5) Fair=some semisolid stool suctioned or washed away
(§6) Poor=semisolid or solid stool unable to be suctioned or washed away
This open-label, 2-site study employed a dose-escalating design using 3 split doses of L-glucose (24 g/24 g, 36 g/36 g, and 48 g/48 g). The doses were administered the night before and the morning of a scheduled colonoscopy. The study was conducted in Phase I facilities to control for administration of L-glucose and adherence to the dietary and hydration regimen.
Three dose cohorts of 24 subjects were evenly divided between males and females for each cohort. Subjects who were scheduled to undergo an elective colonoscopy, who met the study entrance criteria, and who gave their consent to participate in the study were enrolled. […] Each subject observed a strict diet and hydration regimen as part of the study medication administration.
The site pharmacist prepared the L-glucose preparation based on the study medication preparation manual provided. Each subject, regardless of dose cohort, received the dose in 8 ounces of water, which was to be consumed within a 10-minute period. Dose cohorts proceeded in a dose-escalating fashion starting with the lowest dose (24 g/24 g) and escalated according to a dose escalation decision tree.
The physician performing the colonoscopy utilized Applicant's GPA scale to evaluate the quality of bowel preparation as before suctioning and washing.
The Residual Stool Score (RSS) described above was also used to assess bowel cleansing in each of the 5 segments of the bowel (rectum, descending colon, transverse colon, ascending colon, and cecum). As noted, assessments included the amount of stool present, the consistency of the stool, and the estimated percentage of the bowel wall visualized in each segment.
For reasons of inadequate bowel preparation, sections of the bowel that were not directly examined during colonoscopy were rated as “poor” on all three measures listed previously.
A total of 24 subjects were enrolled into each of the three dose cohorts. All 72 subjects were included in the intent-to-treat (ITT) and safety populations.

[5] = design: species or system mice, rats, dogs, rabbits, and monkeys; conditions: in vivo
Procedure: as §1

[6] = Clinical studies of L-glucose absorption, elimination and tolerability; type: in vivo, human
[7] = Comparative Example 2: randomized, single-blind study of L-glucose as bowel preparation before colonoscopy (GPA scale); type: in vivo, human
Procedure: as §2, §3, §4, §5, §6
A randomized, single-blind study designed to determine the clinical effectiveness of L-glucose as a bowel preparation before colonoscopy was performed. Three dose regimens were evaluated: 24 g in the evening only, 30 g in the evening only, and 24 g in the evening followed by 12 g in the morning (36 g total). Here, Applicant's GPA scale described herein was used to evaluate the preparations. […] Clinical efficacy (defined as a combination of “excellent” and “good” assessments) for the split-dose schedule was 19/27 (70%), as compared to 7/31 (23%) in the single-dose schedule (p<0.001).
As noted above in the description of Applicant's GPA scale, the criteria for determining whether a preparation was deemed “excellent” or “good” was respectively defined as “clean colon or small volume of clear liquid” or “moderate to large volume of clear to semi-clear liquid.” These criteria are more stringent than the rating system used by Raymer et al. discussed supra since Raymer's “excellent” and “good” ratings were respectively defined as “no more than small bits of adherent fecal fluid” and “small amounts of feces or fluid not interfering with the examination.” Thus, Raymer's “excellent” rating would likely not qualify as even a “good” rating in Applicant's GPA scale.

[8] = 24-g single dose; Raymer scale; cited from earlier work
[9] = 5 min. delay before stirring, listed as L- glucose monohydrate^2, monohydrate
[10] = no delay before stirring, listed as L- glucose monohydrate^2, monohydrate
[11] = Total of all three dose cohorts, ITT, N = 72
[12] = 24 g, 30 g, 24 g + 12 g regimens

For `O.O=C[C@@H](O)[C@H](O)[C@@H](O)[C@@H](O)CO` [L-glucose monohydrate], the “Time of stirring until sample fully dissolved” value ([1]; 5 min. delay before stirring, listed as L- glucose monohydrate^1, monohydrate) was “Sample fully dissolved after 2.5 min. of stirring”, the “Time of stirring until sample fully dissolved” value [1, 9] was “Fully dissolved after 1 min. of stirring. Final” and the “Time of stirring until sample fully dissolved” value ([1]; no delay before stirring, listed as L- glucose monohydrate^1, monohydrate) was “Sample fully dissolved after 2.5 min. of stirring”. For the same compound, the “Time of stirring until sample fully dissolved” value [1, 10] was “Fully dissolved after 2 min. of stirring. Final”, the “Observation of undissolved solid / clumping” value ([1]; 5 min. delay before stirring) was “Several clusters of solid at 1 min. Final solution” and the “Appearance of final solution” value [1, 9] was “solution was clear, colorless and homogeneous”. For the same compound, the “Observation of undissolved solid / clumping” value ([1]; no delay before stirring) was “Several clusters of solid at 1 min. Final solution” and the “Appearance of final solution” value [1, 10] was “solution was clear, colorless and homogeneous”.
In the case of `O=C[C@@H](O)[C@H](O)[C@@H](O)[C@@H](O)CO` [L-glucose], the “Toxicity from continuous administration” value ([2]; rat, in vivo) is reported as “no overt evidence of toxicity”, the Maximum tolerated dose ([2]; rats) is reported as 10 % dietary level and the “Acceptability as a colonic cleanser” value [3] is reported as “not acceptable”. For the same compound, the “Global Preparation Assessment, Max” value ([4]; 24 g/24 g cohort, ITT, n = 24) was 4.00, the “Global Preparation Assessment, Mean (SD)” value ([4]; 24 g/24 g cohort, ITT, n = 24) was 3.29 (0.81) and the “Global Preparation Assessment, Median” value ([4]; 24 g/24 g cohort, ITT, n = 24) was 3.50. For the same compound, the “Global Preparation Assessment, Min” value ([4]; 24 g/24 g cohort, ITT, n = 24) was 2.00, the “Subjects with GPA Fair, number (percentage)” value ([4]; 24 g/24 g cohort, ITT, n = 24) was 5 (20.8) and the “Subjects with GPA Good, number (percentage)” value ([4]; 24 g/24 g cohort, ITT, n = 24) was 7 (29.2). For the same compound, the “Subjects with GPA Poor, number (percentage)” value ([4]; 24 g/24 g cohort, ITT, n = 24) was 0 (0.0), the “Global Preparation Assessment, Max” value ([4]; 36 g/36 g cohort, ITT, n = 24) was 4.00 and the “Global Preparation Assessment, Median” value ([4]; 36 g/36 g cohort, ITT, n = 24) was 4.00. For the same compound, the “Global Preparation Assessment, Min” value ([4]; 36 g/36 g cohort, ITT, n = 24) was 1.00, the “Subjects with GPA Fair, number (percentage)” value ([4]; 36 g/36 g cohort, ITT, n = 24) was 2 (8.3) and the “Subjects with GPA Good, number (percentage)” value ([4]; 36 g/36 g cohort, ITT, n = 24) was 7 (29.2). The “Global Preparation Assessment, Max” value ([4]; 48 g/48 g cohort, ITT, n = 24) was 4.00, the “Global Preparation Assessment, Median” value ([4]; 48 g/48 g cohort, ITT, n = 24) was 4.00 and the “Global Preparation Assessment, Min” value ([4]; 48 g/48 g cohort, ITT, n = 24) was 2.00. The “Subjects with GPA Fair, number (percentage)” value ([4]; 48 g/48 g cohort, ITT, n = 24) was 1 (4.2), the “Subjects with GPA Good, number (percentage)” value ([4]; 48 g/48 g cohort, ITT, n = 24) was 1 (4.2) and the “Subjects with GPA Poor, number (percentage)” value ([4]; 48 g/48 g cohort, ITT, n = 24) was 0 (0.0). For the same compound, the “Efficacy compared among the three split doses” value ([4]; 48 g/48 g dose) was “greatest efficacy”, the “Time to the first watery bowel movement, compared among doses” value ([4]; 48 g/48 g dose) was “shortest time to the first watery bowel movement” and the “GPA, mean (SD)” value ([4]; Site 01, all dose cohorts) was 3.68 (0.75). The “Subjects who had a complete colonoscopy, number (percentage)” value ([4]; Site 01, all dose cohorts) was 30 (96.8%), the “Subjects with GPA rated poor, number (percentage)” value ([4]; Site 01, all dose cohorts) was 1 (3.2%) and the “Subjects with GPA rated excellent” value ([4]; Site 01, all dose cohorts, 25 subjects) was 80.7%. The “GPA, mean (SD)” value ([4]; Site 02, all dose cohorts) was 3.41 (0.74), the “Subjects who had a complete colonoscopy, number (percentage)” value ([4]; Site 02, all dose cohorts) was 39 (95.1%) and the “Subjects with GPA rated excellent” value ([4]; Site 02, all dose cohorts, 23 subjects) was 56.1%. For the same compound, the “Global Preparation Assessment, Max” value [4, 11] was 4.00, the “Global Preparation Assessment, Mean (SD)” value [4, 11] was 3.53 (0.75)^ and the “Global Preparation Assessment, Median” value [4, 11] was 4.00. For the same compound, the “Global Preparation Assessment, Min” value [4, 11] was 1.00, the “Subjects with GPA Excellent, number (percentage)” value [4, 11] was 48 (66.7) and the “Subjects with GPA Fair, number (percentage)” value [4, 11] was 8 (11.1). The “Subjects with GPA Good, number (percentage)” value [4, 11] was 15 (20.8), the “Subjects with GPA Poor, number (percentage)” value [4, 11] was 1 (1.4) and the “Subjects who had a complete colonoscopy (to the level of the cecum), number (percentage)” value ([4]; in each dose cohort (24 g/24 g, 36 g/36 g, 48 g/48 g)) was 23 (95.8%). The “Effect of food restriction on metabolism” value [5] was “no significant effect”, the “Major route of elimination” value [5] was “urinary excretion” and the “Metabolism of L-glucose” value [5] was “no metabolism”. For the same compound, the “Metabolism by colonic bacteria” value ([6]; breath hydrogen in humans, comparable with in vitro studies) was “colonic bacteria do not metabolize L-glucose”, the “Absorption from the intestine” value ([6]; human, in vivo) was “moderately absorbed” and the “Glucose or insulin response after administration” value ([6]; human, in vivo) was “No significant glucose or insulin response”. For the same compound, the “Lower gastrointestinal symptoms (cramping, gas/flatus)” value ([6]; human, in vivo) was “occurred in a majority of subjects, but symptoms were mild”, the “Major routes of elimination” value ([6]; human, in vivo) was “fecal and urinary excretion” and the “Mild upper gastrointestinal symptoms (vomiting, nausea, belching/rifting, bloating)” value ([6]; human, in vivo) was “occurred in a minority of subjects”. For the same compound, the “Outcome of evening-only dose arms” value ([7]; 24 g and 30 g evening-only doses) was “suspended for lack of effectiveness”, the “Changes in laboratory test results” value [7, 12] was “no clinically significant changes” and the “Commonly reported adverse events” value [7, 12] was “generally absent or mild”. The “Overall tolerance to the bowel preparation” value [7, 12] was “good or very good”, the “Clinical efficacy (combination of excellent and good GPA assessments)” value ([7]; single-dose schedule (24 g or 30 g evening only), 7/31 subjects) was 23% and the “Clinical efficacy (combination of excellent and good GPA assessments)” value ([7]; split-dose schedule: 24 g evening followed by 12 g morning, 19/27 subjects) was 70%. For the same compound, the “Subjects with colonoscopy preparation grade of excellent or good” value [8] was 80%.
